Source: patent US5668121A, “Glutamate (NMDA) receptor antagonists” (Warner-Lambert Company, priority 1995, dated 1997)

What was measured:
[1] = target: NMDA receptor; conditions: read-out: [3H]-CCP binding assay result; cited from earlier work
[2] = target: T1, neutral amino acid transporter (Cricetulus griseus, UniProt G3GRU9); test: Competition with [3H]-L-phenylalanine for uptake into CHO cells; format: cell-based, Chinese hamster; conditions: 20 μM [3H]-L-phenylalanine
T1 construct: uptake into Chinese hamster ovary (CHO) cells; endogenous in cells; host or cells: Chinese hamster ovary (CHO) cells
Method: Transport capacity was determined by measuring the ability of these compounds to compete with L-phenylalanine for uptake into Chinese hamster ovary (CHO) cells. All transport studies were performed in the presence of 20 μM [^3 H]-L-phenylalanine and a varying amount of the inventive compound. The capacity of the compound for transport was evaluated by its ability to reduce the transport of phenylalanine. The compounds were determined to be either substrates or not substrates of the neutral amino acid transporter,and have KM values of between 20 and 500 μM.

[3] = tested on: glutamate recognition site of the NMDA receptor; test: [3H]-glutamate receptor binding assay, synaptosomal membrane from rat cortex; conditions: for IC50: rat cortex synaptosomal membrane, read-out: affinity in [3H]-glutamate binding assay (ability to displace 50% of the radioligand)
Method: (§1) Receptor binding experiments were performed using synaptosomal membrane from rat cortex according to means described in the literature.
(§2) Moreover, Bigge, et al., J. Med. Chem., 32 1580 (1989) discloses a [^3 H]-CCP binding assay result of 3.3 μM for the unsubstituted 5-(phosphonomethyl)-phenylalanine compound.

[4] = tested on: electroshock induced convulsions; test: Electroshock induced convulsions in the mouse; format: in vivo
[5] = target: glutamate recognition site of the NMDA receptor; test: [3H]-CGP 39653 receptor binding assay, synaptosomal membrane from rat cortex; conditions: read-out: affinity in [3H]-CGP binding assay (ability to displace 50% of the radioligand)
Method: as §1, §2

T1 sequence (G3GRU9 1-506): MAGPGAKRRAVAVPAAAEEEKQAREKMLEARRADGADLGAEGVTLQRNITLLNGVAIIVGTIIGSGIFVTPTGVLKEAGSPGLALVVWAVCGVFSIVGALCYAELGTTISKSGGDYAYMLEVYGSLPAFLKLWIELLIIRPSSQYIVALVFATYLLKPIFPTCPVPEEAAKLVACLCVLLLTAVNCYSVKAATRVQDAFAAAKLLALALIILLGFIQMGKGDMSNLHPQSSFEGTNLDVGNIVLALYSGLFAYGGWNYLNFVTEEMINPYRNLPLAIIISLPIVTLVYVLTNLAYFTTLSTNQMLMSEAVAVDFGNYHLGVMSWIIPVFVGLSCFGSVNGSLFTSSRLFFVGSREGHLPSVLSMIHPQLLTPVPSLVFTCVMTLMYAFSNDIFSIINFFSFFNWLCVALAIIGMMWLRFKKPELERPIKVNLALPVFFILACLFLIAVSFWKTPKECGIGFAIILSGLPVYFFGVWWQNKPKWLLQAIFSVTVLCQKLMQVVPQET
T1 sequence (A0A9J7CH39 1-533 partner): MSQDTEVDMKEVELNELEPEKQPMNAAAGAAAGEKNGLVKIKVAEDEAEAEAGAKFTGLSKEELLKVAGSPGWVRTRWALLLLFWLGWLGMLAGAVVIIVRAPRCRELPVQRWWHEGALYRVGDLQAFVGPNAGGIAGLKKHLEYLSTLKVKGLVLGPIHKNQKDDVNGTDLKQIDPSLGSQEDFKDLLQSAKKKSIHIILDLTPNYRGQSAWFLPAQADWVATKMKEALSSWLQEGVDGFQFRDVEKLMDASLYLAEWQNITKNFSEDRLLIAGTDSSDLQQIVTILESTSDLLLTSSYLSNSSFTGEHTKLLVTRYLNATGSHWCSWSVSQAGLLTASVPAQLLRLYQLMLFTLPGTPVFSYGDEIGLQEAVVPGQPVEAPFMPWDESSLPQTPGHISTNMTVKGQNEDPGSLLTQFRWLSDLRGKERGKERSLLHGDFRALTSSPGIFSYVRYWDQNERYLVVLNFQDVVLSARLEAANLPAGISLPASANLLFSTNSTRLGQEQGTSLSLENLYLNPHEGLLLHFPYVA

Row | SMILES | IC50 [1] [µM] | inhibition of phenylalanine transport [2] | improvement in potency, as measured by binding assays, over prior art NMDA receptor antagonists ([3]; [3H]-glutamate and [3H]-CGP binding, comparison with prior art compounds) | IC50 [3] [nM] | ED50 ([4]; iv, 50 mA 200 ms corneal shock, read-out: ED50, inhibition of hindlimb extension) [mg/kg] | anticonvulsant activity after oral administration ([4]; oral) | IC50 [5] [nM]
1 | N[C@@H](Cc1cccc(CP(=O)(O)O)c1)C(=O)O [5-(phosphonomethyl)-phenylalanine] | 3.3 |  |  |  |  |  | 
2 | N[C@@H](Cc1cc(CP(=O)(O)O)cc(-c2cccc3ccccc23)c1)C(=O)O [3-(1-Naphthalenyl)-5-(phosphonomethyl)-L-phenylalanine] |  | inhibited phenylalanine transport in CHO cells | at least a ten to thirty fold, and up to a several hundred fold improvement in potency | 4 | < 1 | demonstrates activity after oral administration with an extended duration of action | 8
3 | NC(Cc1cc(CP(=O)(O)O)cc(-c2ccccc2)c1)C(=O)O (single isomer, unassigned) [(+)-α-amino-3-(5-phosphonomethyl-[1,1'-biphenyl]-3-yl)propanoic acid, reference compound] |  |  |  | 115 |  |  | 98
